Laboratory results as given in patent publication US20080064027A1, “TEL/Etv6-mediated inhibition of cell proliferation” (priority 2002, published 2008).
Entries after “also recorded” stand apart in the source; their conditions may differ.

Key:
[1] = system: Stat3 transcriptional activity; assay: Stat3 luciferase reporter assay with transfected TEL or TEL mutants; assay type: cell-based
Protocol: In brief, TEL- or control, pcDNA3.1-transfected Stat3ERA375 cells, treated with 4HT were cultured in the presence or absence of Trichostatin A (TSA; 250 nM), a general HDAC inhibitor, essentially as described above.
Briefly, Stat3-ER-A375 cells and HEK 293 cells were transfected with the different TEL mutants, a Stat3 reporter plasmid and a Renilla plasmid.

[2] = system: Stat3-ER-expressing A375 cells; assay: Cell proliferation after siRNA transfection; assay type: cell-based
Source text: This Example follows cell proliferation of Stat3-ER-expressing A375 cells treated with 4HT or a combination of 4HT and OSM, then cell proliferation in the absence or in the presence of siRNA to C/EBPd.
The following 21-mer oligoribonucleotide pairs were used:
This Example follows cell proliferation of Stat3-ER-expressing A375 cells treated with 4HT or a combination of 4HT and OSM, and in the absence or in the presence of siRNA to TEL.

C/EBPdelta mRNA = assay: C/EBPdelta expression (quantitative PCR); assay type: cell-based
Protocol: A LacZ siRNA was used as control. The designed RNA oligonucleotides were ‘blasted’ against the GENBANK/EMBL databank to ensure gene specificity. The RNA oligonucleotides were obtained commercially. Transfection with expression vectors was carried out 1 day after the siRNA transfection using Effectene.

TEL [3] = assay: TEL protein level by Western blotting; assay type: cell-based; conditions: 4HT or 4HT/OSM treated; relative to control LacZ siRNA
Protocol: Protein analysis was carried out by Western blotting. In brief, cells were harvested in NP40 extraction buffer (50 mM Tris (pH 7.5), 1 mM EGTA, 5 mM EDTA, 120 mM NaCl, 1% NP40, 2 mM sodium orthovanadate, 50 mM sodium fluoride, 20 mM ? -glycerophosphate, 10 μg/ml leupeptin, 10 μg/ml aprotinin, and 0.5 mM phenylmethylsulfonyl fluoride) for 5 min on ice. The lysates were clarified by centrifugation and protein concentrations were determined using the Bio-Rad protein assay reagent (Bio-Rad Laboratories Gmbh, Munich, Germany). For immunoprecipitaton, equal amounts of proteins were incubated with Stat3 (C-20) from Santa Cruz Biotechnology (Santa Cruz, Calif.) for 1 hr. Following SDS-polyacrylamide gel eletrophoresis (SDS-PAGE), proteins were blotted onto polyvinylidene difluoride membranes (Boehringer Mannheim, Mannheim, Germany). After blocking with 10% horse serum (Life Technologies, Inc.) in 50 mM Tris pH 7.5, 150 mM NaCl, 0.05% Tween 20, filters were probed with specific antibodies; c-TEL, Stat3 (C-20) from Santa Cruz Biotechnology (Santa Cruz, Calif.), phospho-Stat3 (Tyr 705) from Cell Signaling Technology (Beverly, Mass.). Proteins were visualized with peroxidase-coupled secondary antibodies using the enhanced chemiluminescence detection system (Amersham Pharmacia Biotech, Little Chalfont, United Kingdom).

[4] = system: Stat3 transcriptional activity; assay: APRE-driven luciferase reporter assay; assay type: cell-based; conditions: for Stat3-dependent transcription of luciferase, increase over control: TEL expression reduced by siRNA
Source text: Luciferase assays are used to verify that the Stat3-ER construct is transcriptionally active. For this purpose, a luciferase reporter gene driven by the acute-phase response element (APRE) of the alpha 2-macroglobulin gene, a target for Stat1 and Stat3, was used.
Cells (2×10^6 cells/6 well dish) were transfected with a reporter plasmid containing four copies of acute phase responsible element (APRE) upstream of the minimal junB promoter linked to the luciferase gene (T Hirano, EMBO Journal, 1996, 15, 3651-3658), together with the internal control plasmid pRL-SV40 from Promega (Madison, Wis.). Twenty-four hours after the transfection, cells were either left unstimulated or stimulated with OSM (PeproTechEC, London, United Kingdom), 4-hydroxytamoxifen (4HT; Sigma, St. Louis, Mo.) or a combination of 4HT/OSM for 24 hours. The preparation of cell extracts and measurement of luciferase activities were carried out using the Dual-Luciferase reporter assay system from Promega (Madison, Wis.) in an Autolumat LB 953 (Berthold Technologies, Wildbad, Germany). Changes in firefly luciferase activity were expressed relative to Renilla luciferase activity in the same sample.

[5] = target: Signal transducer and activator of transcription 3 (Stat3) (UniProt P40763); assay: cell-based or functional assay
Stat3 = assay: TEL-Stat3 interaction, immunoprecipitation from nuclear extracts; assay type: binding
Protocol: Since the TEL DNA-binding domain is not required for repression of Stat3 activity, this Example tests the possibility that TEL interacts directly with Stat3. Extracts from nuclear-enriched fractions were prepared from control or OSM-stimulated A375 cells. […] Endogenous TEL was present in Stat3 immunoprecipitates and the levels of TEL associating with Stat3 increased in OSM-treated compared to control-treated nuclear extracts. Conversely, Stat3 is present in a TEL-containing complex, pulled down through an immobilized GGM-containing oligonucleotide, which is a binding site for TEL.

TEL [6] = assay: TEL expression in human cancer cell lines; assay type: cell-based
Source text: TEL is usually expressed as two protein isoforms corresponding to initiation of TEL mRNA translation at ATG codon 1 and 43 (TEL and TEL43). […] To ascertain if TEL is a natural target of Stat3, we examined its expression in human cancer cell lines in response to OSM or IL-6. […] However, TEL expression was unchanged in other cell lines, including the prostate cancer cells PC3 and LNCaP and MDA-MB-468 breast cancer cells, even though it was expected that Stat3 is activated in each of these cell lines by IL-6/OSM treatment.

Chain of Signal transducer and activator of transcription 3 (Stat3) (P40763 2-770 limits assumed): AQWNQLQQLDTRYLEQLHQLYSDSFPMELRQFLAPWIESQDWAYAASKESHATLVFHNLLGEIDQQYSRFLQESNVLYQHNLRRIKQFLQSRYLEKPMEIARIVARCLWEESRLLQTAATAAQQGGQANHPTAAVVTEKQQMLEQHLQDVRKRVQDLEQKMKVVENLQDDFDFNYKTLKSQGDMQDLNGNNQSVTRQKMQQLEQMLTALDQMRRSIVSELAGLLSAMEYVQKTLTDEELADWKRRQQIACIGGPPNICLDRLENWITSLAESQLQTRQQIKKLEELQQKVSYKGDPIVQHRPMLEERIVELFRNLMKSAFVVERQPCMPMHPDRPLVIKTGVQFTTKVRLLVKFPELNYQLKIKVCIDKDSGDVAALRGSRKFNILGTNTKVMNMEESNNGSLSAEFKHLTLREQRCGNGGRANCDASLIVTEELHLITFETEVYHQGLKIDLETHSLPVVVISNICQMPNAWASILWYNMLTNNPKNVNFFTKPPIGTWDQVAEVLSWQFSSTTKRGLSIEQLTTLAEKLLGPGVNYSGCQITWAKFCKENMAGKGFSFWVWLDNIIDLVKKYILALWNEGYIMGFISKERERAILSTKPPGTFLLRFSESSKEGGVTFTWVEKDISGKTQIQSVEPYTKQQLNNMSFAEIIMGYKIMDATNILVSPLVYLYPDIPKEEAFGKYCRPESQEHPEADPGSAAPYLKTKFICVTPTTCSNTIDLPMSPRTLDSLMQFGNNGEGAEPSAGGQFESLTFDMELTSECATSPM

## CC(/C=C/C(=O)NO)=C\[C@@H](C)C(=O)c1ccc(N(C)C)cc1 [TSA, Trichostatin A, reference compound]
[1]; TSA 250 nM, TEL-transfected 4HT-stimulated Stat3ERA375 cells
  effect on repression of Stat3 activity by TEL: prevented the repression of Stat3 activity by TEL
[1]; TSA 250 nM, pcDNA3.1-transfected cells, 4HT
  effect on Stat3 mediated transcriptional activity: had no effects

## C/EBPdelta siRNA: siRNA duplex nt 844-864, SEQ ID NO:2 and SEQ ID NO:3 (chain 1 GCAGCUGCCCAGCCCGCCCTT; chain 2 GGGCGGGCUGGGCAGCUGTT; combined DNA/RNA strands, DNA positions not given here, further chemistry not given here)
[2]; about 40-45% with control siRNA
  inhibition of cell proliferation in the presence of siRNA: about 25%
[2]; average of three independent experiments, versus control siRNA
  reduction of the inhibition of A375 cell proliferation: about 40%
C/EBPdelta mRNA
  C/EBPdelta expression in the presence of siRNA: significantly reduced expression

## TEL siRNA: siRNA nt 540-560, SEQ ID NO:4 and SEQ ID NO:5 (chain 1 CCCUCCCACCAUUGAACUGTT; chain 2 CAGUUCAAUGGUGGGAGGGTT; combined DNA/RNA strands, DNA positions not given here, further chemistry not given here)
TEL [3]
  TEL expression in the presence of TEL siRNA: largely prevented; also recorded: strongly decreased
[2]; 4HT and OSM treated Stat3ER A375 cells
  anti-proliferative effects of Stat3 versus control LacZ siRNA treated cultures: stronger
[2]; about 28% without TEL siRNA
  Stat3-mediated inhibition of A375 cell proliferation in the presence of TEL siRNA: about 40%
[4]; induced by 4HT
  Stat3-dependent transcription of luciferase, increase over control: ~16 fold
[4]; induced by OSM
  Stat3-dependent transcription of luciferase, increase over control: ~18 fold

## TEL/Etv6 (ets variant gene 6; TEL oncogene) (from UniProt P41212 1-452)
[5]
  Stat3 activity (APRE luciferase reporter) in response to OSM on overexpression of TEL: > 70 % reduction

## TEL: ets variant gene 6 (TEL oncogene) product, overexpressed by transfection
Stat3
  interaction with Stat3: still interact with Stat3
[1]; in response to OSM, Stat3ER A375 cells and HEK293 cells
  reduction in Stat3 activity by overexpression of TEL: > 70%

## interleukin 6 [IL-6]
TEL [6]; PC3, LNCaP prostate cancer cells and MDA-MB-468 breast cancer cells
  TEL expression: unchanged
TEL [6]; T47D and SKBr-3 breast cancer cells, DU145 prostate carcinoma cells, HepG2 hepatoma-derived cells
  TEL expression: significantly increased
[4]; Stat3-ER-expressing A375 cells
  cooperative effect with 4HT on luciferase activity: same cooperative effect with 4HT

B1: TEL delta 442-452: TEL deletion mutant (protein)
chain: MSETPAQCSIKQERISYTPPESPVPSYASSTPLHVPVPRALRMEEDSIRLPAHLRLQPIYWSRDDVAQWLKWAENEFSLRPIDSNTFEMNGKALLLLTKEDFRYRSPHSGDVLYELLQHILKQRKPRILFSPFFHPGNSIHTQPEVILHQNHEEDNCVQRTPRPSVDNVHHNPPTIELLHRSRSPITTNHRPSPDPEQRPLRSPLDNMIRRLSPAERAQGPRPHQENNHQESYPLSVSPMENNHCPASSESHPKPSSPRQESTRVIQLMPSPIMHPLILNPRHSVDFKQSRLSEDGLHREGKPINLSHREDLAYMNHIMVSVSPPEEHAMPIGRIADCRLLWDYVYQLLSDSRYENFIRWEDKESKIFRIVDPNGLARLWGNHKNRTNMTYEKMSRALRHYYKLNIIRKEPGQRLLFRFMKTPDEIMSGRTDRLEHLESQE
[1]; Stat3-ER-A375 cells and HEK 293 cells, 24 h
  repression of 4HT- or OSM-induced Stat3 transcriptional activity: is not able to repress Stat3 activity
